In patent US20040176329A1, “Drugs for promoting the proliferation, differentiation and/or survival of glial cells containing cyclic phosphatidic acid” (priority 2001, published 2004):

Key:
[1] = system: NIH-3T3; test: Formation of stress fiber in NIH-3T3 by addition of lysophospholipids; assay type: cell-based, mouse; conditions: 10 μM, 37° C., 30 minutes, subconfluent serum starvation state; control: no formation
Description: NIH-3T3, a mouse-derived fibroblast cell, was incubated in a Dulbecoo's Modified Eagle's Medium (DMEM) containing 10% fetal bovine serum (FBS; made by Moregate), and was used in the Experiment. 2.5 ×10^4 cells of the NIH-3T3 were inoculated in a petri dish (10 cm in diameter) paved with cover glasses of 22 mm in diameter, and the medium was replacing with a FBS-free medium after 24 hours, and the cells were incubated in a serum starvation state for 48 hours. 10 μM of the lysophospholipid was added, and the cells were incubated at 37° C. for 30 minutes for stimulation. Then, the cells were fixed in the Dalbecco's PBS containing 3.7% of paraformaldehyde and 0.1% of Triton X-100 at room temperature for 10 minutes. Thereafter, the cells were stained with 5 units/ml of rhodamine phalloidin (made by Funakoshi) at 37° C. for 1 hour. The cover glasses were washed with PBS thrice, and observation was carried out by a cofocus laser microscope TCS NT Control laser Scanning Microscope (made by Leica).
The product obtained by the A.sp.362-derived PLD reaction was studied with respect to its biochemical activity in order to confirm further that it was a compound which is identical to cPA. Namely, the activity of forming actin stress fiber in a fibroblast cell, one of the physiological activities of cPA, was studied. To NIH-3T3, i.e. a fibroblast cell line derived from mouse, in the subconfluent state in the serum starvation state, each 10 μM of LPA, a chemically synthesized PHYLPA, or cPA, i.e. the PLD reaction product was added at 37° C. for 30 minutes, and then actin stress fiber was stained with Rhodamine phalloidin, and observation was carried out.

[2] = system: primary cultured cerebral cortex cells (neurons); test: Oligodendrocyte primary culturing system with cPA or LPA added: cell appearance at early culturing stage; assay type: cell-based, rat; conditions: 5 μM per dish, FIG. 7; for aggregation of cells and bundling of neurons: early culturing stage (P-6th day)
Description: (§1) A mother rat of 18 days of pregnancy (E18Wistar Rat) was put into an anesthesia bottle containing an adequate amount of diethyl ether, and was anesthetized. The anesthetization was carried out for 3-5 minutes and stopped just before death. The mother rat was taken out of the anesthesia bottle, put on a suitable vat to lie on its back, and disinfected at the hypogastric area with ethanol. The rat was tom along a cut line about 3-4 cm upward from the tail joint by a scissors, and opened sideward with the scissors to separate the inner membrane from the skin. The skin was tom to expose the inner membrane, which was disinfected again with ethanol and tom to take out the uterus. The Y-shaped section of the uterus was cut while lifting the uterus, and the uterus was taken out. The taken out uterus was dipped in a cooled MEM^− in order to decrease the damage of the fetus brain.
The cerebral cortex was picked by a round pincette into a 35 mm dish to which 2 ml of dispase I (3 U/ml) was added, and was placed in a CO2 5% and humidity 95% incubator at 37° C. for 5 minutes. Then, Dnase (1 ml) was added thereto, and the dish was put in the incubator for 10 minutes again. The resultant solution was sufficiently pipetted while being careful not to make bubbles by a Pasteur pipette having the top end rounded by burning, so that the cells might be free from any bundles. The upper inlet of 50 ml tube was covered with a 70 μm mesh, and the mesh was then wetted with an adequate amount of MEM^−. The cell suspension thus obtained was poured into the tube through the mesh, and about 2 ml of MEM^− was poured to wash the mesh. The mesh was removed, and the resultant was messed up to 30-40 ml with MEM^−. The thus obtained sample was centrifuged at 1,000 rpm for 5 minutes, and the supernatant was removed. […]
(§2) The dish is washed twice with about 5 ml of PBS(−). […] Then, the cell number is counted by a cell counter. The supernatant is discarded, 20-30 ml of MEM^+ (B.S at the third passage) is added, and the resultant is pipetted, and the cell number is counted by a cell counter. […]

[3] = system: O-2A precursor cells; test: Oligodendrocyte primary culturing system with cPA or LPA added: O-2A precursor cells; assay type: cell-based, rat; conditions: 5 μM per dish; for number of O-2A precursor cells versus control: 6th day from first passage (1P-6th day)
Description: as §1
(§3) The cerebral cortex was picked by a round pincette into a 35 mm dish to which 2 ml of dispase I (3 U/ml) was added, and was placed in a CO2 5% and humidity 95% incubator at 37° C. for 5 minutes. Then, Dnase (1 ml) was added thereto, and the dish was put in the incubator for 10 minutes again. The resultant solution was sufficiently pipetted while being careful not to make bubbles by a Pasteur pipette having the top end rounded by burning, so that the cells might be free from any bundles. The upper inlet of 50 ml tube was covered with a 70 μm mesh, and the mesh was then wetted with an adequate amount of MEM^−. The cell suspension thus obtained was poured into the tube through the mesh, and about 2 ml of MEM^− was poured to wash the mesh. The mesh was removed, and the resultant was messed up to 30-40 ml with MEM^−. The thus obtained sample was centrifuged at 1,000 rpm for 5 minutes, and the supernatant was removed. The sample was messed up again to 30-40 ml with MEM^−, pipetted and centrifuged again at 1,000 rpm. The supernatant was removed, and the sample was supplied with 30 ml of MEM^−, and sufficiently pipetted, and then the cell number was countered by a cell counter. The cell suspension was inoculated in the PLL-coated dishes to be 1.0×10^7 cells/dish. The liquid was adjusted with MEM^+ to be a final volume of 10 ml/dish, and the cells were cultured in an incubator.
After disposal of the culture medium, the dish is washed twice with about 3 ml of PBS(−), and 10 ml of the fresh culture medium is poured. The medium change after the 17th day is carried out using B.S (serum-free medium). […]
as §2

[4] = system: oligodendrocytes; test: Oligodendrocyte primary culturing system with cPA or LPA added: oligodendrocytes; assay type: cell-based, rat; conditions: 5 μM per dish; for oligodendrocyte cell number and dendrites: further 10 days after 3P-OL, FIG. 13
Description: as §1, §3
(§4) After disposal of the culture medium, the dish is washed twice with about 3 ml of PBS(−), and 10 ml of the fresh culture medium is poured. The medium change after the 17th day is carried out using B.S (serum-free medium). Only at the first medium change, 200 μl of bFGF is added per dish. It is because the O-2A precursor cell is grown.
(§5) The dish is washed twice with about 5 ml of PBS(−). At the first passage, the dish is left stand for 2-3 minutes after supplying PBS(−) at the second time. 2-3 ml of 0.05% trypsin is added, and the dish is left stand in a 37° C. incubator for 8 minutes. After observation of the cell condition with a microscope, while keeping the trypsin as it was, the dish is supplied with MEM^+ at the same amount as the trypsin, and the cells is pipetted to stop the action of trypsin. The resultant was centrifuged at 1,000 rpm for 5 minutes. After removing the supernatant, 20-30 ml of MEM^− is added, and the resultant is pipetted again, centrifuged at 1,000 rpm for 5 minutes. Then, the cell number is counted by a cell counter. The supernatant is discarded, 20-30 ml of MEM^+ (B.S at the third passage) is added, and the resultant is pipetted, and the cell number is counted by a cell counter. Depending on respective passage stages, the cells are inoculated in respective dishes at the following number, and are cultured while left standing in an incubator.
(§6) From the stage of primary culturing, cPA or LPA was added to be an amount of 5 μM per dish every passage and medium change. […]

[5] = system: astrocytes; test: Oligodendrocyte primary culturing system with cPA or LPA added: astrocytes; assay type: cell-based, rat; conditions: 5 μM per dish; for astrocytes by GFAP staining: 2P-6th day, fluorescence microscope, FIG. 10; for state and cell density of astrocytes: 6th day from second passage (2P-6th day), serum-free medium, FIG. 9; for remaining astrocytes: 6th day from third passage (3P-6th day), FIG. 11
Description: as §1, §3, §4, §5, §6

[6] = 3P-6th day, fluorescence microscope, FIG. 12

Row | Molecule | formation of actin stress fiber (Rhodamine phalloidin staining) [1] | aggregation of cells and bundling of neurons [2] | cell density ([3]; 1P-6th day, FIG. 8) | number of O-2A precursor cells versus control ([3]; FIG. 8) | proliferation of O-2A precursor cells (conclusion) ([3]; early culturing stage) | MBP staining colour versus control [4, 6] | oligodendrocyte cell number and dendrites [4] | astrocytes by GFAP staining [5] | state and cell density of astrocytes [5] | remaining astrocytes [5] | survival of astrocytes (conclusion) ([5]; all culturing stages) | survival of astrocytes ([5]; further 10 days after 3P-OL, FIG. 13) | cell appearance versus control ([2]; 6th day from primary culturing (P-6th day)) | differentiation of oligodendrocytes by 04 staining ([4]; 2P-6th day, fluorescence microscope, FIG. 10) | state of dendrites of oligodendrocytes ([4]; 3P-6th day, FIG. 11) | extent of MBP staining along the dendrite ([4]; 3P-6th day, FIG. 12)
1 | CCCCCC[C@@H]1C[C@@H]1CCCCCCCC(=O)OC[C@@H]1COP(=O)(O)O1 [PHYLPA] | formation of stress fibers was observed | – | – | – | – | – | – | – | – | – | – | – | – | – | – | –
2 | CCCCCCCC/C=C\CCCCCCCC(=O)OCC1COP(=O)(O)O1 (stereo not shown) [cPA, 1-oleoyl cyclic phosphatidic acid] | formation of stress fibers was observed | causes cells to aggregate and neurons to be bundled | much higher than the others | increase in number more remarkably | promotes O-2A precursor cells to proliferate | develops color stronger | many dendrites of oligodendrocytes around them which were not suffered from apoptosis | exists in a dense tissue | remained vigorous, and remained high in cell density | the astrocytes which was deformed to the narrow ones still remain | promotes the survival of astrocytes through all their culturing stages | the astrocytes survived even at this stage | – | – | – | –
3 | lysophosphatidic acid [LPA] | formation of stress fibers was observed | aggregate to form bundles of the neurons | – | increase in number more remarkably | – | develops color stronger | the cell number itself decreased and the dendrite fell ragged | the tissue of the astrocytes can be confirmed | lowered in cell density, though not so wrong as in the control | little astrocytes remains | – | – | no large difference in cell appearance | elongated dendrites to form fine mesh-shape and differentiations is proceeded | dendrites of the oligodendrocytes suffer from aoptosis and begin to be ragged | even the tip of the dendrite is stained
